From ChEMBL document CHEMBL4507303, “Data for DCP probe TP-004” (2021)

Legend:
[1] = biological target: Histamine H3 receptor (Homo sapiens) (UniProt Q9Y5N1); conditions: Compound concentration 10.0 uM
[2] = biological target: Microtubule-associated serine/threonine-protein kinase 1 (Homo sapiens) (UniProt Q9Y2H9); conditions: Compound concentration 1000.0 nM
[3] = biological target: Homeodomain-interacting protein kinase 2 (Homo sapiens) (UniProt Q9H2X6); conditions: Compound concentration 1000.0 nM
Sequence of Homeodomain-interacting protein kinase 2 (Homo sapiens) (Q9H2X6 whole entry, looked up): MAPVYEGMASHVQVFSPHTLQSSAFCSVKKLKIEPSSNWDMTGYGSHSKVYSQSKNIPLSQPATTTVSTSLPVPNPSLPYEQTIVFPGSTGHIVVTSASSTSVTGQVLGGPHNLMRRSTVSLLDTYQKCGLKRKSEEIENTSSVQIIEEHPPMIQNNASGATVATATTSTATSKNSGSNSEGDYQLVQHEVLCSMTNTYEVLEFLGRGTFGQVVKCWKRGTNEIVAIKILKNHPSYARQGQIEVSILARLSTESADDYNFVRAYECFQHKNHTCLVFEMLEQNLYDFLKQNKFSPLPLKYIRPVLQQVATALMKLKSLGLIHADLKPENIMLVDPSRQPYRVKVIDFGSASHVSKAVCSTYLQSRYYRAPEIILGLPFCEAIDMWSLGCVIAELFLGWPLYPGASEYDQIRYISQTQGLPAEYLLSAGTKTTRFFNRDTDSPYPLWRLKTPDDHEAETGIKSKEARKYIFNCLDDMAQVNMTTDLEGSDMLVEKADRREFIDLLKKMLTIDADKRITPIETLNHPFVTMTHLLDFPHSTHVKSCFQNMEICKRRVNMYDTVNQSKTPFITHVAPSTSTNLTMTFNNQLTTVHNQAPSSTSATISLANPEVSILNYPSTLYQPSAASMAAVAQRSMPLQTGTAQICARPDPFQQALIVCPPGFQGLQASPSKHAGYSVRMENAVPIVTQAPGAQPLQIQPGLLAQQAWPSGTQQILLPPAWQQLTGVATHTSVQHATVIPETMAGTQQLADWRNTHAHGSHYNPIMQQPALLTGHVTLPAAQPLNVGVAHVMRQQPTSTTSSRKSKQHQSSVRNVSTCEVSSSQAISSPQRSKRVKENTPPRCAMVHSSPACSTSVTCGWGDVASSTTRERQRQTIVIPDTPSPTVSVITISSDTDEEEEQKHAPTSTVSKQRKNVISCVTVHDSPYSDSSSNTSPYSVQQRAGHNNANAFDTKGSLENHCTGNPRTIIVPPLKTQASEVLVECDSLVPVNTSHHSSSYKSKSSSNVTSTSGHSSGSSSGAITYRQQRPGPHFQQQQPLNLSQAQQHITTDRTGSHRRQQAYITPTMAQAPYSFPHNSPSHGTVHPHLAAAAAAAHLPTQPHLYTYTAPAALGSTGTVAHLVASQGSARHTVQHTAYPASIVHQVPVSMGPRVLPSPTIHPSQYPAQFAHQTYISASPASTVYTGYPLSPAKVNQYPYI

[4] = biological target: Mast/stem cell growth factor receptor Kit (Homo sapiens) (UniProt P10721); conditions: Compound concentration 1000.0 nM
[5] = biological target: Protein-tyrosine kinase 2-beta (Homo sapiens) (UniProt Q14289); conditions: Compound concentration 1000.0 nM
[6] = biological target: Muscarinic acetylcholine receptor M2 (Homo sapiens) (UniProt P08172); conditions: Compound concentration 10.0 uM
Sequence of Muscarinic acetylcholine receptor M2 (Homo sapiens) (P08172 whole entry): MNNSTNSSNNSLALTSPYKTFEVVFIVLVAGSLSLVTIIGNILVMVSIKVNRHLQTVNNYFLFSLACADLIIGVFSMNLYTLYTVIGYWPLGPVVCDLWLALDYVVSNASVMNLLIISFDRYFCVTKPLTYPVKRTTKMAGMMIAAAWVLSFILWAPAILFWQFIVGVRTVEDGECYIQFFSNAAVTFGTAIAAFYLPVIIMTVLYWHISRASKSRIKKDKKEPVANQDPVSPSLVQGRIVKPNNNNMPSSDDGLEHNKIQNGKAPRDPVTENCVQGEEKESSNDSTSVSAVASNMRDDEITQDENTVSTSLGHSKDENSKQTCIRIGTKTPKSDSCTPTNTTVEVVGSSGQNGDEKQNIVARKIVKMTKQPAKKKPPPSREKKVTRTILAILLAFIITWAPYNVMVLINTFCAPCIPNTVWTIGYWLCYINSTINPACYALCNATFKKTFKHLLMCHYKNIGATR

[7] = biological target: cAMP-dependent protein kinase catalytic subunit alpha (Homo sapiens) (UniProt P17612); conditions: Compound concentration 1000.0 nM
[8] = tested on: Receptor-type tyrosine-protein kinase FLT3 (Homo sapiens), P36888 [K663Q]; conditions: Compound concentration 1000.0 nM
[9] = biological target: Casein kinase I isoform epsilon (Homo sapiens) (UniProt P49674); conditions: Compound concentration 1000.0 nM
[10] = biological target: Myosin-IIIb (Homo sapiens) (UniProt Q8WXR4); conditions: Compound concentration 1000.0 nM
[11] = biological target: Tyrosine-protein kinase Srms (Homo sapiens) (UniProt Q9H3Y6); conditions: Compound concentration 1000.0 nM
[12] = tested on: Tyrosine-protein kinase ABL1 (Homo sapiens), P00519 [F317L]; conditions: Compound concentration 1000.0 nM
[13] = biological target: Vascular endothelial growth factor receptor 3 (Homo sapiens) (UniProt P35916); conditions: Compound concentration 1000.0 nM
[14] = tested on: Epidermal growth factor receptor (Homo sapiens), P00533 [G719C]; conditions: Compound concentration 1000.0 nM
[15] = biological target: Phosphatidylinositol 4-phosphate 3-kinase C2 domain-containing subunit beta (Homo sapiens) (UniProt O00750); conditions: Compound concentration 1000.0 nM
[16] = biological target: Fibroblast growth factor receptor 4 (Homo sapiens) (UniProt P22455); conditions: Compound concentration 1000.0 nM
[17] = biological target: Sodium-dependent noradrenaline transporter (Homo sapiens) (UniProt P23975); conditions: Compound concentration 10.0 uM
[18] = biological target: Tyrosine-protein kinase Lyn (Homo sapiens) (UniProt P07948); conditions: Compound concentration 1000.0 nM
[19] = biological target: Bone morphogenetic protein receptor type-1B (Homo sapiens) (UniProt O00238); conditions: Compound concentration 1000.0 nM
[20] = biological target: Serine/threonine-protein kinase TAO1 (Homo sapiens) (UniProt Q7L7X3); conditions: Compound concentration 1000.0 nM
[21] = tested on: Phosphatidylinositol 4,5-bisphosphate 3-kinase catalytic subunit alpha isoform (Homo sapiens), P42336 [H1047L]; conditions: Compound concentration 1000.0 nM
[22] = biological target: 5-hydroxytryptamine receptor 1B (Homo sapiens) (UniProt P28222); conditions: Compound concentration 10.0 uM
[23] = biological target: Dual specificity tyrosine-phosphorylation-regulated kinase 2 (Homo sapiens) (UniProt Q92630); conditions: Compound concentration 1000.0 nM
[24] = biological target: Calcium/calmodulin-dependent protein kinase type 1D (Homo sapiens) (UniProt Q8IU85); conditions: Compound concentration 1000.0 nM
[25] = biological target: Serine/threonine-protein kinase 38 (Homo sapiens) (UniProt Q15208); conditions: Compound concentration 1000.0 nM
[26] = biological target: Cyclin-dependent kinase 14 (Homo sapiens) (UniProt O94921); conditions: Compound concentration 1000.0 nM
[27] = biological target: Serine/threonine-protein kinase PAK 2 (Homo sapiens) (UniProt Q13177); conditions: Compound concentration 1000.0 nM
[28] = biological target: Serine/threonine-protein kinase SIK1 (Homo sapiens) (UniProt P57059); conditions: Compound concentration 1000.0 nM
Sequence of Serine/threonine-protein kinase SIK1 (Homo sapiens) (P57059 whole entry): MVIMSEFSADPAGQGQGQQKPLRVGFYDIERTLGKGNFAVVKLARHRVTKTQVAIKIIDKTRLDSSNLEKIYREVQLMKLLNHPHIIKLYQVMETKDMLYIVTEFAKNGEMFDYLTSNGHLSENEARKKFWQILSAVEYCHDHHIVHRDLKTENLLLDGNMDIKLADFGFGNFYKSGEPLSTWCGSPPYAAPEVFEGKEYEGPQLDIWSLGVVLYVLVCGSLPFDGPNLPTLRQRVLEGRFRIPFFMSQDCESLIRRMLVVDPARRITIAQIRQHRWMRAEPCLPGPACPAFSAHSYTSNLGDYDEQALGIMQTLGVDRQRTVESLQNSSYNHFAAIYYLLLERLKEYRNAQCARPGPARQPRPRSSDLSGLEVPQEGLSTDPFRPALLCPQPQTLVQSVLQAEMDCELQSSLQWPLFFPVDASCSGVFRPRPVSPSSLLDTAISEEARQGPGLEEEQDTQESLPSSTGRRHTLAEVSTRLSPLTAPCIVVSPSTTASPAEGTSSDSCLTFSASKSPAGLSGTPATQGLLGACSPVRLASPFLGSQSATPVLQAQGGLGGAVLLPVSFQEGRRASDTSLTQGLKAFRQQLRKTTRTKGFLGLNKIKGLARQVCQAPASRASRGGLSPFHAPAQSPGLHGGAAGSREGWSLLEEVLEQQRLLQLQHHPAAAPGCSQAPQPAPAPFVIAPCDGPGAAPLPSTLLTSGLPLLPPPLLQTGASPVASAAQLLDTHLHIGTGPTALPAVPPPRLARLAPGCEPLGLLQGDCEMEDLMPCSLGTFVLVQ

[29] = biological target: Cyclin-dependent kinase 4 (Homo sapiens) (UniProt P11802); conditions: Compound concentration 1000.0 nM
[30] = biological target: Phosphorylase b kinase regulatory subunit alpha, liver isoform (Homo sapiens) (UniProt P46019); conditions: Compound concentration 1000.0 nM
[31] = tested on: Mast/stem cell growth factor receptor Kit (Homo sapiens), P10721 [A829P]; conditions: Compound concentration 1000.0 nM
[32] = biological target: Calcium/calmodulin-dependent protein kinase type 1 (Homo sapiens) (UniProt Q14012); conditions: Compound concentration 1000.0 nM
[33] = biological target: Serine/threonine-protein kinase tousled-like 1 (Homo sapiens) (UniProt Q9UKI8); conditions: Compound concentration 1000.0 nM
[34] = biological target: Phosphatidylinositol 3-kinase catalytic subunit type 3 (Homo sapiens) (UniProt Q8NEB9); conditions: Compound concentration 1000.0 nM
[35] = biological target: Muscarinic acetylcholine receptor M1 (Homo sapiens) (UniProt P11229); conditions: Compound concentration 10.0 uM
[36] = biological target: Serine/threonine-protein kinase MRCK gamma (Homo sapiens) (UniProt Q6DT37); conditions: Compound concentration 1000.0 nM
[37] = biological target: Serine/threonine-protein kinase PknB (Mycobacterium tuberculosis) (UniProt P9WI81); conditions: Compound concentration 1000.0 nM
[38] = biological target: Serine/threonine-protein kinase pim-3 (Homo sapiens) (UniProt Q86V86); conditions: Compound concentration 1000.0 nM
[39] = biological target: Bone morphogenetic protein receptor type-2 (Homo sapiens) (UniProt Q13873); conditions: Compound concentration 1000.0 nM
[40] = tested on: Epidermal growth factor receptor (Homo sapiens), P00533 [L858R,T790M]; conditions: Compound concentration 1000.0 nM
[41] = biological target: Mitogen-activated protein kinase kinase kinase 20 (Homo sapiens) (UniProt Q9NYL2); conditions: Compound concentration 1000.0 nM
[42] = biological target: Dual specificity mitogen-activated protein kinase kinase 3 (Homo sapiens) (UniProt P46734); conditions: Compound concentration 1000.0 nM
Sequence of Dual specificity mitogen-activated protein kinase kinase 3 (Homo sapiens) (P46734 whole entry): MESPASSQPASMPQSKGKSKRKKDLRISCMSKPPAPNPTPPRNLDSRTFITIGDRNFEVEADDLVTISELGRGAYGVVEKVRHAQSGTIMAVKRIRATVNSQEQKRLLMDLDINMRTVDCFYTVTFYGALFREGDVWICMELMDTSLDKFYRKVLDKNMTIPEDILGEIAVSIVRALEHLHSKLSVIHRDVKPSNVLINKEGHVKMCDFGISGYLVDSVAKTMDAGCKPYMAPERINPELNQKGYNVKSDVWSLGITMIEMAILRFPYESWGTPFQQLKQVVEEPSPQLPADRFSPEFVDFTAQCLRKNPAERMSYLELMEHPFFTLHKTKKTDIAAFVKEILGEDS

[43] = biological target: Dual specificity tyrosine-phosphorylation-regulated kinase 1A (Homo sapiens) (UniProt Q13627); conditions: Compound concentration 1000.0 nM
[44] = tested on: Epidermal growth factor receptor (Homo sapiens), P00533 [L861Q]; conditions: Compound concentration 1000.0 nM
[45] = biological target: TRAF2 and NCK-interacting protein kinase (Homo sapiens) (UniProt Q9UKE5); conditions: Compound concentration 1000.0 nM

Sequence of Histamine H3 receptor (Homo sapiens) (Q9Y5N1 whole entry): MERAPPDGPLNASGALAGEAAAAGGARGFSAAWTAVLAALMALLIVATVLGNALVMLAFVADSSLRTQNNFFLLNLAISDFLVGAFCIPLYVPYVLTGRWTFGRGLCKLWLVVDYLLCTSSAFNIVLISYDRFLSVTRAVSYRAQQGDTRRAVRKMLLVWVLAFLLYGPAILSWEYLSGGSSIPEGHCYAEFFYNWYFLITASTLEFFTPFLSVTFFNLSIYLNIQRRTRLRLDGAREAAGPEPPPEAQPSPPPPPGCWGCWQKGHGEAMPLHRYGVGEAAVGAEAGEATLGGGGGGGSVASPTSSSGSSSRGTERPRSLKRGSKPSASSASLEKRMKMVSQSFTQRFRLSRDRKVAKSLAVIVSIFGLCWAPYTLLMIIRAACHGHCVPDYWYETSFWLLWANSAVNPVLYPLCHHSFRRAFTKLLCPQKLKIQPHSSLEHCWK
Sequence of Microtubule-associated serine/threonine-protein kinase 1 (Homo sapiens) (Q9Y2H9 whole entry, looked up): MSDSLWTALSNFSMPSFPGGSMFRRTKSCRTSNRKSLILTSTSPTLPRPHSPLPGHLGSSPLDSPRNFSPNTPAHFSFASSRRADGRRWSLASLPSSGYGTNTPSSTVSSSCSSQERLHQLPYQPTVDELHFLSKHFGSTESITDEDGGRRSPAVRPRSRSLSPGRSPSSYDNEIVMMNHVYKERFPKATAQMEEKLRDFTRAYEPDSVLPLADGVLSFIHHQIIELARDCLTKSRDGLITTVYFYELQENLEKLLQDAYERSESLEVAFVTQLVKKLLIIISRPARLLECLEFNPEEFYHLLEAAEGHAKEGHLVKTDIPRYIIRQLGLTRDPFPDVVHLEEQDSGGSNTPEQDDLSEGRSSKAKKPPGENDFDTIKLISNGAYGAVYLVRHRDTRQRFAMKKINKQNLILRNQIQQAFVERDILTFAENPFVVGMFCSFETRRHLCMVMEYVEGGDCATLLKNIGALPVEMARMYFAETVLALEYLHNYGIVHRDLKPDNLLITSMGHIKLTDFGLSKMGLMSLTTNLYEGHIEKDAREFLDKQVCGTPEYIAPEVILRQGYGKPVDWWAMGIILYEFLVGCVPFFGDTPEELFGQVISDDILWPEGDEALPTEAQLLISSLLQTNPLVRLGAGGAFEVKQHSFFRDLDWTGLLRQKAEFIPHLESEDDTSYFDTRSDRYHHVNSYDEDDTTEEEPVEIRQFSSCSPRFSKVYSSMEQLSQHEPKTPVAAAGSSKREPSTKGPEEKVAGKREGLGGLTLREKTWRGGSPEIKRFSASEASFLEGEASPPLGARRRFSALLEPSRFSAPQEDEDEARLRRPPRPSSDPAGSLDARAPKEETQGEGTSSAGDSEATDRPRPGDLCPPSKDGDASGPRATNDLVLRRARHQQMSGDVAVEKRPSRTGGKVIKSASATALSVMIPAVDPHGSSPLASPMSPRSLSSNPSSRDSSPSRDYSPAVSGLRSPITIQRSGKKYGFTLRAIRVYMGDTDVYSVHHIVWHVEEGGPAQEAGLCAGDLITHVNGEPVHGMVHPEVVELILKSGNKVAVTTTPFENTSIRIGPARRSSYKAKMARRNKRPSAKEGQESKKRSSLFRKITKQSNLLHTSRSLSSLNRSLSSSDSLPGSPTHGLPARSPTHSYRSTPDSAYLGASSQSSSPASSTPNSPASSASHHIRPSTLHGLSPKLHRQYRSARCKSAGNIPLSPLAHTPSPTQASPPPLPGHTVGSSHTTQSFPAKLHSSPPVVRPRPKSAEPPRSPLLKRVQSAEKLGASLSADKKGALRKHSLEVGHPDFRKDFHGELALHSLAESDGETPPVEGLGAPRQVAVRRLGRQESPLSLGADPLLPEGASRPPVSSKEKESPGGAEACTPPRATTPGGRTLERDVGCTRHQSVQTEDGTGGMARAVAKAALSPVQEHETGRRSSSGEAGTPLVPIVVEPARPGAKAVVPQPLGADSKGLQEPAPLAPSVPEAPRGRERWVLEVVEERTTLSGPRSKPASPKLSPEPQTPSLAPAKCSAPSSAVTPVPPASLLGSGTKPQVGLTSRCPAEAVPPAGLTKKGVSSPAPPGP

Cc1nc(N2CC[C@@H](O)C2)ncc1-c1cc(C(F)(F)F)cc2[nH]ncc12 [TP-004]
inactive: inhibition [1] 28.6% | residual activity [2] 100% | residual activity [3] 74% | residual activity [4] 67% | residual activity [5] 100% | inhibition [6] -8.94% | residual activity [7] 83% | residual activity [8] 89% | residual activity [9] 79% | residual activity [10] 93% | residual activity [11] 81% | residual activity [12] 58% | residual activity [13] 100% | residual activity [14] 100% | residual activity [15] 100% | residual activity [16] 90% | inhibition [17] 36.9% | residual activity [18] 100% | residual activity [19] 60% | residual activity [20] 91% | residual activity [21] 93% | inhibition [22] 22.3% | residual activity [23] 79% | residual activity [24] 100% | residual activity [25] 95% | residual activity [26] 100% | residual activity [27] 100% | residual activity [28] 90% | residual activity [29] 63% | residual activity [30] 100% | residual activity [31] 60% | residual activity [32] 100% | residual activity [33] 100% | residual activity [34] 63% | inhibition [35] 1.12% | residual activity [36] 100% | residual activity [37] 89% | residual activity [38] 100% | residual activity [39] 81% | residual activity [40] 73% | residual activity [41] 100% | residual activity [42] 90% | residual activity [43] 73% | residual activity [44] 100% | residual activity [45] 100%
